Measured values from patent US12325736B2, “Transduced T cells expressing human SSTR2 and application thereof” (Cornell University, priority 2016, dated 2025).
Each block holds one molecule with its values, some of them ahead of it.

What was measured:
[1] = PET/CT DOTATOC uptake in lungs, 8505C mouse model and controls; format: in vivo, NSG mice; conditions: NSG
Experimental: 1×10^6 8505c-FLuc^+GFP^+cells were injected into NSG mice via tail vein. 2-3×10^6 primary human T cells were injected via tail vein 7-15 days after tumor cell injection. Luminescence imaging of tumor xenografts in live mice was performed using a whole body optical imager (In-Vivo Extreme 4MP, Bruker). Mice were first anesthetized with 3% isoflurane at 2 L/min O2 and subsequent to this, maintained at 2% isoflurane at 2 L/min O2. Growth or reduction in tumor burden was estimated by integration of luminescence over the lungs or the entire mouse body. Ex-vivo fluorescence imaging of mouse liver, lungs, spleen and resected tumors were performed using a whole body optical imager (In-Vivo F Pro, Bruker).
(§1) Projection data was acquired in a cone-beam geometry with approximately […] steps at 1 degree angular increments. At least 10 million coincidence events were acquired for PET per study using a 250 to 750 keV energy window and a 6 ns timing window. […] To compute DOTATOC uptake by Jurkat tumors, the ellipsoidal ROIs (Amide) were placed to enclose subcutaneous tumors that closely match overall tumor size and shape. For systemic 8505C tumor models, ellipsoids were drawn separately on the left and right sides of lungs to enclose much of five lobes of mouse lungs. The % ID/cm^3 values, computed relative to the counts in a reference tube, can be approximated to a standard uptake value (SUV^61) by dividing % ID/cm^3 by four, assuming injection efficiency of 100% and 25 g of body weight. Visualization and analyses of PET/CT images were performed using Amide (amide.sourceforge.net).

[2] = PET/CT DOTATOC uptake by subcutaneous Jurkat T cell xenografts (0-100% SSTR2+); format: in vivo, NSG mice; conditions: NSG (NOD/LtSz Prkdc^scid Il2rg^tm1Wjl/J), mouse, subcutaneous Jurkat tumor xenograft
Experimental: All animal experiments were performed in strict accordance with the recommendations in the Guide for the Care and Use of Laboratory Animals of the National Institutes of Health. This study's animal protocol was approved by the Institutional Laboratory Animal Use and Care Committee of Weill Cornell Medicine. SSTR2 expressing Jurkats were spiked with increasing numbers of non-transduced Jurkats to derive distinct cultures containing defined percentages of SSTR2 expression ranging from 100-0%. For each subcutaneous xenograft, 5×10^6 total cells were resuspended in 100 μl Matrigel Basement Membrane Matrix (Corning) and injected bilaterally into nonobese diabetic (NOD)/LtSz Prkdc^scid I12rg^tm1Wj1/J (NSG) mice (Jackson Laboratory). Measurements of tumor size were made using an external digital caliper. Tumor volume was calculated by using the modified ellipsoid formula 1/2(Length×Width^2). Length was measured as the longer dimension. Each dimensional measurement was rounded to the nearest 0.5 cm.
as §1

SSTR2 = SSTR2 (Homo sapiens, UniProt P30874); experiment: Octreotide-induced SSTR2 internalization in SSTR2-transduced Jurkat T cells by flow cytometry; format: cell-based; conditions: 1 μM octreotide, 30 min, 37° C.
Chain of SSTR2 (P30874 whole entry): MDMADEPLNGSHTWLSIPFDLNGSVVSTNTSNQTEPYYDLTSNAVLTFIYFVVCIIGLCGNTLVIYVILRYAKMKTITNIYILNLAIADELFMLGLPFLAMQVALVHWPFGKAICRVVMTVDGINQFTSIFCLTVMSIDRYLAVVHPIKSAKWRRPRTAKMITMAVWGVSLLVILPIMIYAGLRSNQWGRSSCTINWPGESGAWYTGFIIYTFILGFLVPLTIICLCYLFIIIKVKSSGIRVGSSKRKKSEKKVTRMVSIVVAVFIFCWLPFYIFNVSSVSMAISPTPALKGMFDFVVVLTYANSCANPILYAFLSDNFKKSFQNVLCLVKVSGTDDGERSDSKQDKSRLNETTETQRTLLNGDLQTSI
Experimental: SSTR2-transduced Jurkat T cells were incubated with or without octreotide, 1 μM (Sigma) for 30 min at 37° C. Subsequent internalization of SSTR2 was measured by flow cytometry analysis of SSTR2 expression. […] Values obtained were used for Scatchard analysis to estimate affinity and site density.

ICAM-1 = ICAM-1 (Homo sapiens, UniProt P05362); experiment: SPR measurement of LFA-1 I domain affinity to ICAM-1; format: binding
Chain of ICAM-1 (P05362 28-532): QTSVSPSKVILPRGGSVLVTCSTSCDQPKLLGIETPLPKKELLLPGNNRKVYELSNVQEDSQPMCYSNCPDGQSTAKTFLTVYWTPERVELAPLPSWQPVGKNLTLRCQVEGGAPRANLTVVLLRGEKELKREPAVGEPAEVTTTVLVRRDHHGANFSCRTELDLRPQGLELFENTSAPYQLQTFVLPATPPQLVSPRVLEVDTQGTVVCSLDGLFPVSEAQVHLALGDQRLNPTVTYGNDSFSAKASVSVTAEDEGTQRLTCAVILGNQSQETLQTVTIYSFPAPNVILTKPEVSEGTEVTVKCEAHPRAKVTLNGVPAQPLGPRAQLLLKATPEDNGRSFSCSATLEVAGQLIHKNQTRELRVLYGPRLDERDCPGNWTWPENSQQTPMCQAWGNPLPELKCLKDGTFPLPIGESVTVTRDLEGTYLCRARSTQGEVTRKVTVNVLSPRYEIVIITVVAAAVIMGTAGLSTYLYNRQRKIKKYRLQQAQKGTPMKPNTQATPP
Excerpt: Affinity is first measured by surface plasmon resonance (e.g., Biacore) to assess 1.1 binding affinity between I domain and ICAM-1.

B1: F292G: LFA-1 I domain mutant F292G, G128-G311 of SEQ ID NO: 1 (protein, listed as Homo sapiens)
chain: GNVDLVFLFDGSMSLQPDEFQKILDFMKDVMKKLSNTSYQFAAVQFSTSYKTEFDFSDYVKWKDPDALLKHVKHMLLLTNTFGAINYVATEVFREELGARPDATKVLIIITDGEATDSGNIDAAKDIIRYIIGIGKHFQTKESQETLHKFASKPASEFVKILDTGEKLKDLFTELQKKIYVIEG
- Kd (ICAM-1; SPR measurements, I domain to ICAM-1): 100 nM

B2: F265S/F292G (DM): LFA-1 I domain double mutant F265S/F292G, G128-G311 of SEQ ID NO: 1 (protein, listed as Homo sapiens)
chain: GNVDLVFLFDGSMSLQPDEFQKILDFMKDVMKKLSNTSYQFAAVQFSTSYKTEFDFSDYVKWKDPDALLKHVKHMLLLTNTFGAINYVATEVFREELGARPDATKVLIIITDGEATDSGNIDAAKDIIRYIIGIGKHSQTKESQETLHKFASKPASEFVKILDTGEKLKDLFTELQKKIYVIEG
- affinity higher than the wild-type (WT) I domain (ICAM-1; vs WT KD=1.5 mM): approximately 200,000 fold

Results, then the molecule that gave them:

- tissue uptake per volume ([1]; lungs, DOTATOC uptake in the lungs, mice treated with RR T cells): 1 %ID/mL
- tissue uptake per volume ([1]; lungs, DOTATOC uptake, mice with no tumors infused with SS T cells): 0.7 %ID/mL
- tissue uptake per volume ([1]; thoracic cavity, non-specific DOTATOC uptake in the thoracic cavity, high tumor burden, 23-27 days post-tumor xenograft, no T cells or SS T cells): 1.3 ± 0.5 %ID/mL
- tissue uptake per volume ([2]; Jurkat tumors containing 0% SSTR2+ cells): 0.6 to 0.8 %ID/mL
- tissue uptake per volume ([2]; tumors below 65 mm^3, 0% SSTR2+): 0.44 ± 0.2 %ID/mL
- tissue uptake per volume ([2]; tumors below 65 mm^3, 1% SSTR2+): 0.64 ± 0.4 %ID/mL
- tissue uptake per volume ([2]; tumors below 65 mm^3, 10% SSTR2+): 0.83 ± 0.5 %ID/mL
- tissue uptake per volume ([2]; tumors below 65 mm^3, 100% SSTR2+): 3.4 ± 1.7 %ID/mL
- tissue uptake per volume ([2]; tumors larger than 65 mm^3, 0% SSTR2+): 0.8 ± 0.35 %ID/mL
- tissue uptake per volume ([2]; tumors larger than 65 mm^3, 0.1% SSTR2+): 1.1 ± 0.51 %ID/mL
- tissue uptake per volume ([2]; tumors larger than 65 mm^3, 1% SSTR2+): 2 ± 0.77 %ID/mL
- tissue uptake per volume ([2]; tumors larger than 65 mm^3, 10% SSTR2+): 2.8 ± 1.1 %ID/mL
- tissue uptake per volume ([2]; tumors larger than 65 mm^3, 100% SSTR2+): 7.1 ± 2.3 %ID/mL
Molecule: C[C@@H](O)[C@@H]1NC(=O)[C@H](CCCCN)NC(=O)[C@@H](Cc2c[nH]c3ccccc23)NC(=O)[C@H](Cc2ccc(O)cc2)NC(=O)[C@@H](NC(=O)[C@@H](Cc2ccccc2)NC(=O)CN2CCN(CC(=O)O)CCN(CC(=O)O)CCN(CC(=O)O)CC2)CSSC[C@@H](C(=O)N[C@H](CO)[C@@H](C)O)NC1=O [DOTATOC, 1,4,7,10-tetraazacyclododecane-N^I,N^II,N^III,N^IIII-tetraacetic acid (D)-Phe^1-Tyr^3-octreotide]

- surface expression of SSTR2 (antibody binding) (SSTR2): reduced surface expression of SSTR2
Molecule: C[C@@H](O)[C@@H]1NC(=O)[C@H](CCCCN)NC(=O)[C@@H](Cc2c[nH]c3ccccc23)NC(=O)[C@H](Cc2ccccc2)NC(=O)[C@@H](NC(=O)[C@H](N)Cc2ccccc2)CSSC[C@@H](C(=O)N[C@H](CO)[C@@H](C)O)NC1=O [octreotide]
